Experimental data reported in patent US4264590A, “Antibacterial peptide” (Abbott Laboratories, priority 1980, dated 1981).

Assays:
[1] = tested on: E. coli (Juhl); assay: mouse protection test, CD50 (Table III); type: in vivo
Description: (§1) Charles River mice, weighing approximately 20 g. each, are infected intraperitoneally with 10-100 times the LD of the infecting organism. At predetermined intervals post-infection, e.g., 1 and 5 hours, mice are dosed subcutaneously with graded doses of the halogenated peptide, antibiotic and combination thereof. The number of mice surviving each treatment for 7 days post-infection is observed and the CD50 is calculated. The fractional inhibitory concentration (F.I.C.) for each combination is calculated in the usual manner.
(§2) In this table, the following infecting microorganisms were used:
(§3) The infecting organisms are listed by the above code; the compounds are listed by their Example number. In all instances, the dipeptide and D-cycloserine were tested at a ratio of 10:1. The CD50 combination column lists only the amount of peptide present; the D-cycloserine amount is 10% of the listed amount.

[2] = tested on: S. aureus (Smith); assay: mouse protection test, CD50 (Table III); type: in vivo; settings: for F.I.C. Index / CD50 (mg/kg) Combination: S. aureus (Smith) in mice, dipeptide:D-cycloserine 10:1; for CD50 (mg/kg) Combination: amount of peptide only listed, D-cycloserine is 10% of it; for CD50 (mg/kg) Peptide: mice infected i.p. with S. aureus (Smith), dosed subcutaneously, 7 days survival, peptide alone
Description: as §1, §2, §3

[3] = tested on: E. coli (Juhl); assay: serial dilution in synthetic medium in test tubes, MIC and F.I.C. index (Table II); type: cell-based; settings: for MIC ppm Antibiotic: antibiotic alone
Description: The halogenated peptides alone, the antibiotic alone or mixtures of the halogenated peptides and selected antibiotics are prepared in sterile concentrated aqueous solutions at the desired ratios. Serial dilutions are made to give a range of concentrations of the test substances. Samples of the dilutions are mixed with an appropriate sterile synthetic medium in test tubes. The tubes are then inoculated with an appropriate test organism and incubated at 35°-37° C. for 16-20 hours. Minimum inhibitory concentrations, i.e., that concentration which inhibits visible growth, are read and the fractional inhibitory concentration indices (F.I.C.) are calculated. In all instances, E. coli (Juhl) was used as the infecting microorganism.

[4] = combination with D-cycloserine, ratio Pep/Antib. 1:8
[5] = E. coli (Juhl), 35-37° C., 16-20 hours

Row | Compound | F.I.C. Index [2] | CD50 (mg/kg) Combination [2] [mg/kg] | CD50 (mg/kg) Peptide [2] [mg/kg] | other results
1 | N[C@@H](CCC(=O)O)C(=O)N[C@H](CF)C(=O)O [Example 9, L-Glu-βF-D-Ala] | 0.30 | 7.6 | 28.5 | F.I.C. Index ([1]; E. coli (Juhl) in mice, dipeptide:D-cycloserine 10:1): 0.96; CD50 (mg/kg) Combination ([1]; E. coli (Juhl) in mice, dipeptide:D-cycloserine 10:1, amount of peptide only listed, D-cycloserine is 10% of it): 72 mg/kg; CD50 (mg/kg) Peptide ([1]; mice infected i.p. with E. coli (Juhl), dosed subcutaneously, 7 days survival, peptide alone): 81 mg/kg; F.I.C. Index [3, 4]: 0.50; MIC ppm Pep/Antib., antibiotic part [3, 4]: 3.1 ppm; MIC ppm Pep/Antib., peptide part [3, 4]: 0.39 ppm; MIC ppm Peptide ([3]; peptide alone, E. coli (Juhl), 35-37° C., 16-20 hours): > 800 ppm
2 | NCC(=O)N[C@H](CF)C(=O)O [Example 10, Gly-βF-D-Ala] | 0.27 | 4.7 | 19 | –
3 | CNCC(=O)N[C@H](CF)C(=O)O [Example 11, Sar-βF-D-Ala] | 0.24 | 6.2 | 29 | –
4 | NCC(=O)N[C@H](CCl)C(=O)O [Example 12, Gly-βCl-D-Ala] | 0.30 | 17.4 | 155 | –
5 | COC(=O)[C@@H](CF)NC(=O)[C@H](C)N.Cl [Example 15, L-Ala-βF-D-Ala-OMe.HCl] | 0.32 | 5.5 | 18 | –
6 | CCC(N)C(=O)N[C@H](CF)C(=O)O (stereo partly drawn) [Example 17, L-αNH2 -But-βF-D-Ala] | 0.20 | 2.6 | 13.7 | –
7 | CCCCCCC(N)C(=O)N[C@H](CF)C(=O)O (stereo partly drawn) [Example 20, D,L-α-amino-octanoyl-βF-D-Ala] | 0.10 | 8.6 | 75.9 | –
8 | CC1(C)S[C@@H]2[C@H](NC(=O)C(C(=O)O)c3ccccc3)C(=O)N2[C@H]1C(=O)O (stereo partly drawn) [carbencillin, reference compound] | – | – | – | MIC ppm Antibiotic [3, 5]: 6.2 ppm
9 | CC(=O)OCC1=C(C(=O)O)N2C(=O)[C@@H](NC(=O)Cc3cccs3)[C@H]2SC1 [cephalothin, reference compound] | – | – | – | MIC ppm Antibiotic [3, 5]: 6.2 ppm
